Legend:
[1] = molecular target: SARS-CoV-2 spike protein / ACE2 receptor interaction (Severe acute respiratory syndrome coronavirus 2, UniProt P0DTC2); test: Inhibition of the spike/ACE2 interaction by ELISA; assay type: binding
CaLu-3 cells = test: Cytotoxicity in CaLu-3 cells (crystal violet, 24 hours); assay type: cell-based; details: for Cytotoxicity in CaLu-3 cells: concentrations of up to 100 μM, combinations with respect to AM or AG
Method: In order to determine the cytotoxicity, CaLu-3 cells were cultured in 96-well microtitre plates. The cell culture medium was replaced with fresh medium which contained the gold compounds in concentrations of 25, 50 or 100 μM and incubated for 24 hours at 37° C./5% CO2. Next, the remaining cells were photometrically determined using crystal violet stain (Victor X4 microplate reader). The quantity of cells in the treated samples was calculated as a percentage with respect to an untreated control.

SARS-CoV-2 PLpro [2] = molecular target: T1, SARS-CoV-2 PLpro (Severe acute respiratory syndrome coronavirus 2, UniProt P0DTD1); test: Removal of zinc from PLpro (FluoZin-3 fluorescence); assay type: biochemical; details: 50 μM test compound, 500 nM PLpro, up to 90 minutes (FIG. 10)
T1 construct: SARS-CoV-2 protease Papain-Like Protease (PLpro)
Method: In addition to a cysteine in the catalytic centre of the enzyme, the protease Plpro contains further cysteines in a zinc binding domain which stabilise the structure and function of the enzyme. The removal of the bound zinc constitutes an interesting mechanism for the action of inhibitors for PLpro.
In order to establish whether the inhibitors are Zn-removing agents, the presence of the Zn^2+ cation in solution was determined as follows. The inhibitor compounds were prepared as stock solutions in DMSO, as stock solutions in water or DMSO and diluted one hundred-fold with HEPES buffer ([…], pH 7.5) to 100 μM concentrations. Volumes of 50 μL of SARSCoV-2 PLpro (Elabscience) in HEPES buffer or blank HEPES buffer (control for false positive results) were placed in the wells of a black 96-well microtitre plate (Nunclon, Nunc). Volumes of 50 μL of the inhibitor solutions or 1% DMSO in HEPES buffer (control) were added. […] The resulting solutions were mixed and the fluorescence emission was determined after 10 min, every 10 min over a period of 90 minutes, at 37° C. (λexc=485 nm, λem=535 nm); Victor X4 microtitre plate reader). The relative fluorescence was calculated by dividing the absolute fluorescence emission of the well which contained the inhibitor by the absolute fluorescence of the corresponding well which contained the enzyme but no inhibitor (control). […]

[3] = molecular target: SARS-CoV-2 3CL protease (Mpro) (Severe acute respiratory syndrome coronavirus 2, UniProt P0DTD1); test: Inhibition of SARS-CoV-2 protease 3CLpro; assay type: biochemical; details: 1 h preincubation at 37° C.
Method: 50 μL of the test substance solutions or pure HEPES buffer (positive control) was respectively added thereto and the resulting solutions were mixed and incubated for one hour at 37° C.

[4] = test system: bovine coronavirus (BCoV); assay type: cell-based
SARS-CoV-2 PLpro [5] = molecular target: T1, SARS-CoV-2 PLpro; test: Inhibition of SARS-CoV-2 protease PLpro (fluorogenic substrate Z-Arg-Leu-Arg-Gly-Gly-AMC); assay type: biochemical; details: 1 h preincubation at 37° C.; for the mixture with respect to the quantity of aurothioglucose
[6] = test system: mouse model for acute allergic asthma; test: Anti-inflammatory action in a mouse model for acute allergic asthma, intranasal application

## CC(=O)N[C@@H](CS)C(=O)O [N-acetylcysteine]
[1]; 100 μM, N-acetylcysteine alone, read-out: Spike/ACE2 interaction remaining, % of control
  remaining activity at 100 µM: 97%

## CC(=O)OC[C@H]1O[C@@H]([S-])[C@H](OC(C)=O)[C@@H](OC(C)=O)[C@@H]1OC(C)=O.CCP(CC)CC.[Au+] [auranofin]
CaLu-3 cells; 25 μM, CaLu-3 cells
  Quantity of cells, % of the untreated control: < 20 % of the untreated control

## OC[C@H]1O[C@H]([S-])[C@H](O)[C@@H](O)[C@@H]1O.[Au+] [aurothioglucose]
SARS-CoV-2 PLpro [2]
  Removal of zinc from PLpro: comparable with the reference compound disulfiram
[1]
  Affinity for the spike protein of SARS-CoV-2 virus: high affinity
[1]; 20 μM aurothioglucose (FIG. 8)
  Inhibition of the spike/ACE2 interaction: resulted in an inhibition
[3]
  IC50: 8.25 µM
[4]; 256 μM aurothioglucose, preincubated 1 h with 100 TCID50 BCoV, MDBK cells, 12-48 hours
  Reduction in the viral load: 10 fold
CaLu-3 cells
  Cytotoxicity in CaLu-3 cells: no relevant cytotoxicity
SARS-CoV-2 PLpro [5]
  IC50: 7.03 µM

## O=C(O)CC([S-])C(=O)O.[Au+] (centres unmarked) [aurothiomalate]
[3]
  IC50: 22.9 µM
CaLu-3 cells
  Cytotoxicity in CaLu-3 cells: no relevant cytotoxicity
SARS-CoV-2 PLpro [5]
  IC50: 0.6 µM

## NC(=O)c1nc(F)c[nH]c1=O [favipiravir]
[4]
  Viral load formed on adding favipiravir: reduction in the viral load

## auroacetylcysteine
[6]; 10 mg/kg over 5 days
  Total inflammatory cells in bronchial secretions, extent of respiratory tract inflammation, eosinophils and neutrophiles, inflammatory infiltrates in lung parenchyma: reduced
[6]; 10 mg/kg, histology
  Inflammatory parameters peribronchially and in the parenchyma: reduced
[6]; AAC group, 5 mice
  Deaths in treatment group: one death
[6]; cell populations (FIG. 5)
  Eosinophilic and neutrophilic granulocytes and lymphocytes: reduced
  Macrophages: increased compared with dexamethasone
[6]; intranasal, compared with placebo and dexamethasone 1 mg/kg (FIG. 2)
  Total cell count in bronchoalveolar lavage: comparable with dexamethasone
[6]; versus dexamethasone 1 mg/kg
  Anti-inflammatory effect in the tissue: comparable with that of dexamethasone

From patent US12569515B2, “Gold-containing agents for the treatment of lung infections” (Aurovir Pharma GmbH, priority 2020, dated 2026)
